Source: US20130005760A1, “HETEROCYCLIC COMPOUND HAVING AZOLE GROUP” (Toyama Chemical Co., Ltd., priority 2010, published 2013)

system: HIV-1 (JRCSF); assay: Anti-HIV activity (Test Example 1-1): MaRBLE cells infected with HIV-1 (JRCSF), compound added 2 h after seeding, luciferase readout after 7 days; format: cell-based; settings: Human immunodeficiency virus 1, 168 h, 7 days culture, firefly luciferase, virus growth rate, 4 parameter Logistic Model (XLfit 4)
Description: (§1) This example was carried out by reference to Journal of Clinical Microbiology, 2007, Vol. 45, pages 477 to 487.
(§2) An anti-HIV activity was evaluated using MaRBLE cells obtained by transfection of HPB-M(a) derived from human T-lymphocytes with a luciferase gene of which expressions were regulated by HIV-1 LTR and a CCR5 gene etc.
The MaRBLE cells were suspended in RPMI1640 containing 10% FCS (fetal calf serum) and penicillin/streptomycin. After infected with HIV-1 (JRCSF), the cells were seeded on a 96-well plate (1×10^5 cells/well). As a control group, the same number of uninfected cells were seeded.
After incubating the plate under the condition of 37° C. and 5% CO2 for 2 hours, a fresh culture medium or a culture medium containing an appropriately diluted test compound was added to each well.
After further culturing at 37° C. under 5% CO2 for 7 days, an intracellular luciferase activity was measured using Dual-Glo Luciferase assay system (Promega).
(§3) The virus growth rate was calculated by the following equation.
(§4) Virus growth rate (%)=(A/B)×100
(§5) A=(Firefly luciferase activity in the well with the compound)−(Firefly luciferase activity of uninfected cells)
(§6) B=(Firefly luciferase activity in the well without the compound)−(Firefly luciferase activity of uninfected cells)
The IC50 of the compound was calculated by applying virus growth rates of various concentrations to 4 parameter Logistic Model of curve-fitting software XLfit 4.

SMILES	IC50
Cc1noc(C)c1-c1ccc2c(=O)cc(CO)n(-c3cc(N)c(F)cc3F)c2n1 [Example 24, 1-(5-amino-2,4-difluorophenyl)-7-(3,5-dimethylisoxazol-4-yl)-2-hydroxymethyl-1,4-dihydro-4-oxo-1,8-naphthyridine]	540 pM
Cc1noc(C)c1-c1ccc2c(=O)cc(C)n(-c3cc(N)c(S(C)(=O)=O)cc3F)c2c1 [Example 31, 1-(5-amino-2-fluoro-4-(methylsulfonyl)phenyl)-7-(3,5-dimethylisoxazol-4-yl)-2-methyl-1,4-dihydro-4-oxoquinoline]	1800 pM
Cc1noc(C)c1-c1ccc2c(=O)cc(CN)n(-c3ccc(F)cc3F)c2n1 [Example 27, 2-(aminomethyl)-1-(2,4-difluorophenyl)-7-(3,5-dimethylisoxazol-4-yl)-1,4-dihydro-4-oxo-1,8-naphthyridine]	300 pM
Cc1noc(C)c1-c1ccc2c(=O)cc(C)n(Cc3cccc(F)c3N)c2c1 [Example 11, 1-(2-amino-3-fluorobenzyl)-7-(3,5-dimethylisoxazol-4-yl)-2-methyl-1,4-dihydro-4-oxoquinoline]	620 pM
Cc1noc(C)c1-c1ccc2c(=O)cc(N)n(-c3ccc(F)cc3F)c2c1 [Example 10, 2-amino-1-(2,4-difluorophenyl)-7-(3,5-dimethylisoxazol-4-yl)-1,4-dihydro-4-oxoquinoline]	2800 pM
Cc1noc(C)c1-c1ccc2c(=O)cc(CO)n(-c3ccc(F)cc3F)c2n1 [Example 26, 1-(2,4-difluorophenyl)-7-(3,5-dimethylisoxazol-4-yl)-2-hydroxymethyl-1,4-dihydro-4-oxo-1,8-naphthyridine]	230 pM
Cc1noc(C)c1-c1ccc2c(=O)cc(N)n(-c3ccc(F)cc3F)c2n1 [Example 28, 2-amino-1-(2,4-difluorophenyl)-7-(3,5-dimethylisoxazol-4-yl)-1,4-dihydro-4-oxo-1,8-naphthyridine]	300 pM
Cc1noc(C)c1-c1ccc2c(=O)cc(C)n(-c3ccc(F)cc3F)c2n1 [Example 25, 1-(2,4-difluorophenyl)-7-(3,5-dimethylisoxazol-4-yl)-2-methyl-1,4-dihydro-4-oxo-1,8-naphthyridine]	640 pM
Cc1noc(C)c1-c1ccc2c(=O)cc(N)n(-c3cc(N)c(F)cc3F)c2c1 [Example 20, 2-amino-1-(5-amino-2,4-difluorophenyl)-7-(3,5-dimethylisoxazol-4-yl)-1,4-dihydro-4-oxoquinoline]	2600 pM
Cc1noc(C)c1-c1ccc2c(=O)cc(C)n(-c3cc(N)c(Cl)cc3F)c2n1 [Example 34, 1-(5-amino-4-chloro-2-fluorophenyl)-7-(3,5-dimethylisoxazol-4-yl)-2-methyl-1,4-dihydro-4-oxo-1,8-naphthyridine]	480 pM
Cc1noc(C)c1-c1ccc2c(=O)cc(C)n(Cc3cccnc3N)c2c1 [Example 18, 1-((2-aminopyridin-3-yl)methyl)-7-(3,5-dimethylisoxazol-4-yl)-2-methyl-1,4-dihydro-4-oxoquinoline]	3500 pM
Cc1noc(C)c1-c1ccc2c(=O)cc(C)n(Cc3ccccc3N)c2c1 [Example 5-2, 1-(2-aminobenzyl)-7-(3,5-dimethylisoxazol-4-yl)-2-methyl-1,4-dihydro-4-oxoquinoline.½ pinacol adduct]	270 pM
Cc1noc(C)c1-c1ccc2c(=O)cc(CO)n(-c3ccc(F)cc3F)c2c1 [Example 22, 1-(2,4-difluorophenyl)-7-(3,5-dimethylisoxazol-4-yl)-2-hydroxymethyl-1,4-dihydro-4-oxoquinoline]	600 pM
CCc1cc(=O)c2ccc(-c3c(C)noc3C)cc2n1-c1cc(N)c(F)cc1F [Example 16, 1-(5-amino-2,4-difluorophenyl)-7-(3,5-dimethylisoxazol-4-yl)-2-ethyl-1,4-dihydro-4-oxoquinoline]	7200 pM
Cc1noc(C)c1-c1ccc2c(=O)cc(C)n(Cc3ccccc3N)c2n1 [Example 29, 1-(2-aminobenzyl)-7-(3,5-dimethylisoxazol-4-yl)-2-methyl-1,4-dihydro-4-oxo-1,8-naphthyridine]	1200 pM
CCc1cc(=O)c2ccc(-c3c(C)noc3C)cc2n1Cc1cccc(F)c1N [Example 17, 1-(2-amino-3-fluorobenzyl)-7-(3,5-dimethylisoxazol-4-yl)-2-ethyl-1,4-dihydro-4-oxoquinoline]	260 pM
Cc1noc(C)c1-c1ccc2c(=O)cc(CO)n(Cc3ccccc3N)c2c1 [Example 7, 1-(2-aminobenzyl)-7-(3,5-dimethylisoxazol-4-yl)-2-hydroxymethyl-1,4-dihydro-4-oxoquinoline]	200 pM
Cc1noc(C)c1-c1ccc2c(=O)cc(CO)n(-c3cc(N)c(F)cc3F)c2c1 [Example 19, 1-(5-amino-2,4-difluorophenyl)-7-(3,5-dimethylisoxazol-4-yl)-2-(hydroxymethyl)-1,4-dihydro-4-oxoquinoline]	1700 pM

system: HIV-1 (JRCSF); assay: Anti-HIV activity (Test Example 1-2): infected MaRBLE cells seeded on plate containing drug solution, luciferase readout after 7 days; format: cell-based; settings: Human immunodeficiency virus 1, 168 h, MaRBLE cells infected with HIV-1 (JRCSF), 7 days culture, firefly luciferase, FORECAST linear regression (Excel)
Description: as §1, §2
A plate containing a drug solution was made by dispensing a fresh culture medium or an appropriately diluted test compound to a 96-well plate.
MaRBLE cells were suspended in RPMI1640 containing 10% FCS (fetal calf serum) and penicillin/streptomycin. After infected with HIV-1 (JRCSF), the cells were seeded on the above-described plate containing a drug solution ([…] cells/well). As a control group, the same number of uninfected cells were seeded.
After culturing at 37° C. under 5% CO2 for 7 days, an intracellular luciferase activity was measured using Dual-Glo Luciferase assay system (Promega).
as §3, §4, §5, §6
The IC50 of the compound was calculated by plotting the concentration with the logarithm and by plotting the virus growth rate with a real number, using the FORECAST function (linear regression technique) of Microsoft Office Excel 2003.

SMILES	IC50
Cc1noc(C)c1-c1cc2c(cc1F)c(=O)cc(C)n2Cc1ccccc1N [Example 13, 1-(2-aminobenzyl)-7-(3,5-dimethylisoxazol-4-yl)-6-fluoro-2-methyl-1,4-dihydro-4-oxoquinoline]	2900 pM
Cc1noc(C)c1-c1ccc2c(=O)cc(C)n(Cc3ccc(Cl)c(F)c3N)c2c1 [Example 35, 1-(2-amino-4-chloro-3-fluorobenzyl)-7-(3,5-dimethylisoxazol-4-yl)-2-methyl-1,4-dihydro-4-oxoquinoline]	2600 pM
Cc1noc(C)c1-c1ccc2c(=O)cc(C)n(-c3cc(N)c(S(C)(=O)=O)cc3F)c2n1 [Example 33, 1-(5-amino-2-fluoro-4-(methylsulfonyl)phenyl)-7-(3,5-dimethylisoxazol-4-yl)-2-methyl-1,4-dihydro-4-oxo-1,8-naphthyridine]	870 pM
Cc1noc(C)c1-c1ccc2c(=O)cc(C)n(Cc3cc(F)cc(F)c3N)c2c1 [Example 14, 1-(2-amino-3,5-difluorobenzyl)-7-(3,5-dimethylisoxazol-4-yl)-2-methyl-1,4-dihydro-4-oxoquinoline]	550 pM

system: not listed separately; assay: Pharmacokinetic study in mice (oral administration); format: in vivo; settings: mouse, serum, 25 mg/kg, male ICR mice, suspension in 0.5% methylcellulose 2.5 mg/mL at 10 mL/kg, 12 hours after administration, HPLC, read-out: serum concentration of the test compound
Description: The compounds of Examples 2, 4, 5, 12 and 16 were used as test compounds.
A test compound suspended in 0.5% methylcellulose (2.5 mg/mL) was orally administered at 10 mL/kg to male ICR mice (6 week-old, three animals in a group). At 12 hours after the administration, the blood of the mice was collected, and the concentrations of the test compound in the serum were measured by HPLC.

concentration at 12 h	SMILES
≥ 500 ng/mL	Cc1noc(C)c1-c1ccc2c(=O)cc(C)n(Cc3ccccc3N)c2c1 [Example 5, 1-(2-aminobenzyl)-7-(3,5-dimethylisoxazol-4-yl)-2-methyl-1,4-dihydro-4-oxoquinoline]
≥ 500 ng/mL	CCc1cc(=O)c2ccc(-c3c(C)noc3C)cc2n1-c1cc(N)c(F)cc1F [Example 16, 1-(5-amino-2,4-difluorophenyl)-7-(3,5-dimethylisoxazol-4-yl)-2-ethyl-1,4-dihydro-4-oxoquinoline]
